Test results from PubChem BioAssay (NCI).
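Protocol summary: plate cells (96-well), add compound at 5 concentrations, incubate 48 h, interpolate endpoints linearly. TGI marks complete inhibition of growth.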

Key:
Assay in all cases: NCI tumour cell line growth inhibition, 48 h
[1] = tested on: SF-295 CNS
[2] = tested on: M19-MEL melanoma
[3] = tested on: SNB-78 CNS
[4] = tested on: 786-0 renal
[5] = tested on: HOP-92 NSCLC
[6] = tested on: UACC-62 melanoma
[7] = tested on: SNB-19 CNS
[8] = tested on: HOP-62 NSCLC
[9] = tested on: NCI-H460 lung
[10] = tested on: ACHN renal
[11] = tested on: A498 renal
[12] = tested on: HCT-116 colon
[13] = tested on: NCI-H23 lung
[14] = tested on: KM20L2 colon
[15] = tested on: KM12 colon
[16] = tested on: LXFL 529 NSCLC
[17] = tested on: K-562 leukemia
[18] = tested on: SN12C renal
[19] = tested on: M14 melanoma
[20] = tested on: DLD-1 colon
[21] = tested on: UACC-257 melanoma
[22] = tested on: COLO 205 colon
[23] = tested on: SK-MEL-2 melanoma
[24] = tested on: OVCAR-5 ovarian
[25] = tested on: DMS 273 small cell lung
[26] = tested on: CCRF-CEM leukemia
[27] = tested on: SF-539 CNS
[28] = tested on: HL-60(TB) leukemia
[29] = tested on: HOP-18 NSCLC
[30] = tested on: HCT-15 colon
[31] = tested on: EKVX NSCLC
[32] = tested on: TK-10 renal
[33] = tested on: MALME-3M melanoma
[34] = tested on: U251 CNS
[35] = tested on: HT29 colon
[36] = tested on: CAKI-1 renal
[37] = tested on: HCC-2998 colon
[38] = tested on: UO-31 renal
[39] = tested on: A549 NSCLC
[40] = tested on: OVCAR-4 ovarian
[41] = tested on: RXF 393 renal
[42] = tested on: SK-MEL-5 melanoma
[43] = tested on: SW-620 colon
[44] = tested on: IGROV1 ovarian
[45] = tested on: SNB-75 CNS
[46] = tested on: NCI-H226 lung
[47] = tested on: RPMI-8226 leukemia
[48] = tested on: LOX IMVI melanoma
[49] = tested on: SF-268 CNS
[50] = tested on: OVCAR-8 ovarian
[51] = tested on: NCI-H522 lung
[52] = tested on: OVCAR-3 ovarian
[53] = tested on: SK-OV-3 ovarian
[54] = tested on: XF 498 CNS
[55] = tested on: SR leukemia
[56] = tested on: MOLT-4 leukemia
[57] = tested on: SK-MEL-28 melanoma
[58] = tested on: DMS 114 small cell lung

## CCCCN(CCCC)C(=NCc1ccccc1)NC#N
[1]
  TGI: 35.6 µM
[2]
  TGI: 36.1 µM
[3]
  TGI: 70.2 µM
[4]
  TGI: 47 µM
[5]
  TGI: 33.4 µM
[6]
  TGI: 33.6 µM
[7]
  TGI: 54.2 µM
[8]
  TGI: 55.5 µM
[9]
  TGI: 26.9 µM
[10]
  TGI: 65.9 µM
[11]
  TGI: 42.6 µM
[12]
  TGI: 65.4 µM
[13]
  TGI: 58.5 µM
[14]
  TGI: 52.2 µM
[15]
  TGI: 83.6 µM
[16]
  TGI: 31.2 µM
[17]
  TGI: 28.3 µM
[18]
  TGI: 44.4 µM
[19]
  TGI: 52.1 µM
[20]
  TGI: 47 µM
[21]
  TGI: 67.5 µM
[22]
  TGI: 33 µM
[23]
  TGI: 39 µM
[24]
  TGI: 81.7 µM
[25]
  TGI: 75.7 µM
[26]
  TGI: 37.1 µM
[27]
  TGI: 41.2 µM
[28]
  TGI: 35.7 µM
[29]
  TGI: > 100 µM
[30]
  TGI: 28.2 µM
[31]
  TGI: 73.5 µM
[32]
  TGI: 85.2 µM
[33]
  TGI: 87.4 µM
[34]
  TGI: 35.7 µM
[35]
  TGI: 30.1 µM
[36]
  TGI: 43.9 µM
[37]
  TGI: 49.7 µM
[38]
  TGI: 25.3 µM
[39]
  TGI: > 100 µM
[40]
  TGI: > 100 µM
[41]
  TGI: 39.8 µM
[42]
  TGI: 38.9 µM
[43]
  TGI: 31 µM
[44]
  TGI: 59.2 µM
[45]
  TGI: 95.2 µM
[46]
  TGI: 64.8 µM
[47]
  TGI: 79.3 µM
[48]
  TGI: 30.4 µM
[49]
  TGI: 60.3 µM
[50]
  TGI: > 100 µM
[51]
  TGI: 18.4 µM
[52]
  TGI: 35.3 µM
[53]
  TGI: 70.6 µM

## CCOc1ccc(NC(=O)c2c(N/N=C/c3ccc(OC)cc3)nc(=O)[nH]c2C)cc1
[2]
  TGI: > 100 µM
[3]
  TGI: > 100 µM
[4]
  TGI: > 100 µM
[5]
  TGI: > 100 µM
[6]
  TGI: > 100 µM
[8]
  TGI: > 100 µM
[9]
  TGI: > 100 µM
[10]
  TGI: > 100 µM
[11]
  TGI: 39.4 µM
[12]
  TGI: > 100 µM
[13]
  TGI: > 100 µM
[16]
  TGI: > 100 µM
[17]
  TGI: > 100 µM
[18]
  TGI: > 100 µM
[19]
  TGI: > 100 µM
[20]
  TGI: > 100 µM
[22]
  TGI: > 100 µM
[23]
  TGI: > 100 µM
[25]
  TGI: > 100 µM
[26]
  TGI: > 100 µM
[27]
  TGI: 91 µM
[28]
  TGI: > 100 µM
[30]
  TGI: > 100 µM
[54]
  TGI: > 100 µM
[33]
  TGI: > 100 µM
[55]
  TGI: > 100 µM
[36]
  TGI: > 100 µM
[37]
  TGI: > 100 µM
[38]
  TGI: > 100 µM
[40]
  TGI: 88.4 µM
[44]
  TGI: > 100 µM
[56]
  TGI: > 100 µM
[57]
  TGI: > 100 µM
[45]
  TGI: 96.5 µM
[46]
  TGI: > 100 µM
[47]
  TGI: > 100 µM
[49]
  TGI: > 100 µM
[51]
  TGI: 69.7 µM
[53]
  TGI: 83.1 µM

## O=C(c1cccs1)N(C(=S)N1CCN(c2ccccc2)CC1)c1ccccc1
[1]
  TGI: > 100 µM
[2]
  TGI: > 100 µM
[3]
  TGI: > 100 µM
[4]
  TGI: > 100 µM
[5]
  TGI: > 100 µM
[6]
  TGI: > 100 µM
[7]
  TGI: > 100 µM
[8]
  TGI: > 100 µM
[9]
  TGI: > 100 µM
[10]
  TGI: > 100 µM
[12]
  TGI: > 100 µM
[13]
  TGI: > 100 µM
[14]
  TGI: > 100 µM
[15]
  TGI: > 100 µM
[16]
  TGI: > 100 µM
[17]
  TGI: > 100 µM
[18]
  TGI: > 100 µM
[19]
  TGI: > 100 µM
[20]
  TGI: > 100 µM
[21]
  TGI: > 100 µM
[22]
  TGI: > 100 µM
[58]
  TGI: > 100 µM
[23]
  TGI: > 100 µM
[24]
  TGI: > 100 µM
[25]
  TGI: > 100 µM
[26]
  TGI: > 100 µM
[27]
  TGI: > 100 µM
[28]
  TGI: > 100 µM
[29]
  TGI: > 100 µM
[30]
  TGI: > 100 µM
[32]
  TGI: > 100 µM
[33]
  TGI: > 100 µM
[34]
  TGI: > 100 µM
[55]
  TGI: > 100 µM
[35]
  TGI: > 100 µM
[36]
  TGI: > 100 µM
[38]
  TGI: > 100 µM
[39]
  TGI: > 100 µM
[40]
  TGI: > 100 µM
[41]
  TGI: > 100 µM
[42]
  TGI: > 100 µM
[43]
  TGI: > 100 µM
[44]
  TGI: > 100 µM
[56]
  TGI: > 100 µM
[57]
  TGI: > 100 µM
[45]
  TGI: > 100 µM
[46]
  TGI: > 100 µM
[47]
  TGI: > 100 µM
[48]
  TGI: > 100 µM
[49]
  TGI: > 100 µM
[50]
  TGI: > 100 µM
[51]
  TGI: > 100 µM
[52]
  TGI: > 100 µM
[53]
  TGI: > 100 µM

## Cc1ccc2c(c1)c(=O)c1c(NCCN(C)C)ccc3nnn2c31
[1]
  TGI: 15.4 µM
[2]
  TGI: 20.8 µM
[3]
  TGI: 24.2 µM
[4]
  TGI: 15.9 µM
[5]
  TGI: 11.5 µM
[6]
  TGI: 20.5 µM
[7]
  TGI: 33.8 µM
[8]
  TGI: 21.5 µM
[9]
  TGI: 10.2 µM
[10]
  TGI: 17.7 µM
[11]
  TGI: 12 µM
[12]
  TGI: 15.2 µM
[13]
  TGI: 15.3 µM
[14]
  TGI: 16 µM
[15]
  TGI: 11.7 µM
[16]
  TGI: 20.1 µM
[17]
  TGI: 19.6 µM
[18]
  TGI: > 42 µM
[19]
  TGI: 16.4 µM
[20]
  TGI: 20 µM
[21]
  TGI: 14.2 µM
[22]
  TGI: 9.72 µM
[58]
  TGI: 18.5 µM
[23]
  TGI: 21.1 µM
[24]
  TGI: 12.4 µM
[26]
  TGI: 17.9 µM
[27]
  TGI: 17.8 µM
[28]
  TGI: 8.58 µM
[29]
  TGI: 50 µM
[30]
  TGI: 20.3 µM
[31]
  TGI: 23.6 µM
[32]
  TGI: 28.3 µM
[33]
  TGI: 18 µM
[34]
  TGI: 16.9 µM
[55]
  TGI: 7.67 µM
[35]
  TGI: 12 µM
[36]
  TGI: 12.3 µM
[37]
  TGI: 17 µM
[38]
  TGI: 23.9 µM
[39]
  TGI: 13.6 µM
[40]
  TGI: 12.9 µM
[41]
  TGI: 16.9 µM
[42]
  TGI: 14.1 µM
[43]
  TGI: 18 µM
[44]
  TGI: 23 µM
[56]
  TGI: 5.06 µM
[57]
  TGI: 18 µM
[45]
  TGI: 16.9 µM
[46]
  TGI: 10.3 µM
[47]
  TGI: 7.63 µM
[48]
  TGI: 4.6 µM
[49]
  TGI: 20.2 µM
[50]
  TGI: 17.7 µM
[51]
  TGI: 17.6 µM
[52]
  TGI: > 42.8 µM
[53]
  TGI: 37.6 µM
